Source: US8563542B2 (Cyclacel Limited, priority 2007, dated 2013)

molecular target: PLK1 (Homo sapiens, UniProt P53350); assay: PLK1 protein kinase assay (CDC25C phosphorylation, [γ-32P]-ATP); type: biochemical; details: Table 2, PLK1 IC50; class symbols; read-out: PLK1 IC50
Sequence (P53350 whole entry): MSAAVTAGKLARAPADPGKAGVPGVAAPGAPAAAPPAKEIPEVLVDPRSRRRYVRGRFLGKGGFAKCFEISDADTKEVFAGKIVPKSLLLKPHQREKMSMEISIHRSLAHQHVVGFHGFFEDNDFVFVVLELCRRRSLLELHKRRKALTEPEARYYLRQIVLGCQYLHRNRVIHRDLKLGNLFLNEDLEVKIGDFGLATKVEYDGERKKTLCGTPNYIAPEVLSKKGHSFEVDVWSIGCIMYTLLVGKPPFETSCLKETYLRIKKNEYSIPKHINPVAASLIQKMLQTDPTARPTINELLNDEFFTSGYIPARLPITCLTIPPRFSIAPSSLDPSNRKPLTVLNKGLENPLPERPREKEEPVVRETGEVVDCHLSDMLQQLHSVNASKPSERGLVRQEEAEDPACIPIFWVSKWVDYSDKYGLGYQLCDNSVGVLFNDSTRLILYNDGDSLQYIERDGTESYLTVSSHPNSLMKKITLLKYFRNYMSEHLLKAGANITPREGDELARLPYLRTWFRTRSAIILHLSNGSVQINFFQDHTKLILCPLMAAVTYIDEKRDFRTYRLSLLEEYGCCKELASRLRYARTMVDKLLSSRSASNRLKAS

Row | IC50 [nM] | SMILES
1 | < 1000 | COc1ccc(C(=O)NCc2cccn2C)cc1Nc1ncc2c(n1)N(C1CCCC1)CCC(=O)N2C [compound 268, 3-(9-Cyclopentyl-5-methyl-6-oxo-6,7,8,9-tetrahydro-5H-pyrimido[4,5-b][1,4]diazepin-2-ylamino)-4-methoxy-N-(1-methyl-1H-pyrrol-2-ylmethyl)-benzamide]
2 | < 1000 | COc1ccc(C(=O)NCC2CCCCN2C)cc1Nc1ncc2c(n1)N(C1CCCC1)CCC(=O)N2C (centres unmarked) [compound 269, 3-(9-Cyclopentyl-5-methyl-6-oxo-6,7,8,9-tetrahydro-5H-pyrimido[4,5-b][1,4]diazepin-2-ylamino)-4-methoxy-N-(1-methyl-piperidin-2-ylmethyl)-benzamide]
3 | < 1000 | COCCNC(=O)c1ccc(OC)c(Nc2ncc3c(n2)N(C2CCCC2)CCC(=O)N3C)c1 [compound 270, 3-(9-Cyclopentyl-5-methyl-6-oxo-6,7,8,9-tetrahydro-5H-pyrimido[4,5-b][1,4]diazepin-2-ylamino)-4-methoxy-N-(2-methoxy-ethyl)-benzamide]
4 | < 1000 | COc1ccc(C(=O)NC2CCN(Cc3ccccc3)CC2)cc1Nc1ncc2c(n1)N(C1CCCC1)CCC(=O)N2C [compound 271, N-(1-Benzyl-piperidin-4-yl)-3-(9-cyclopentyl-5-methyl-6-oxo-6,7,8,9-tetrahydro-5H-pyrimido[4,5-b][1,4]diazepin-2-ylamino)-4-methoxy-benzamide]
5 | < 1000 | COc1ccc(C(=O)NCCCCO)cc1Nc1ncc2c(n1)N(C1CCCC1)CCC(=O)N2C [compound 272, 3-(9-Cyclopentyl-5-methyl-6-oxo-6,7,8,9-tetrahydro-5H-pyrimido[4,5-b][1,4]diazepin-2-ylamino)-N-(4-hydroxy-butyl)-4-methoxy-benzamide]
6 | < 1000 | COc1ccc(C(=O)NCc2ccco2)cc1Nc1ncc2c(n1)N(C1CCCC1)CCC(=O)N2C [compound 273, 3-(9-Cyclopentyl-5-methyl-6-oxo-6,7,8,9-tetrahydro-5H-pyrimido[4,5-b][1,4]diazepin-2-ylamino)-N-furan-2-ylmethyl-4-methoxy-benzamide]
7 | < 1000 | CN1CCC(NC(=O)c2ccc(Nc3ncc4c(n3)N(C3CCCC3)CC3(CC3)C(=O)N4C)c(O)c2)CC1 [compound 274, 4-(9-Cyclopentyl-5-methyl-6-oxo-6,7,8,9-tetrahydro-5H-spiro[pyrimido[4,5-b][1,4]diazepin-3,1′-cyclopropane]-2-ylamino)-3-hydroxy-N-(1-methyl-piperidin-4-yl)-benzamide]
8 | < 1000 | COc1cc(C(=O)O)ccc1Nc1ncc2c(n1)N(CC1CC1)CC(C)(C)C(=O)N2C [compound 275, 4-(9-Cyclopropylmethyl-5,7,7-trimethyl-6-oxo-6,7,8,9-tetrahydro-5H-pyrimido[4,5-b][1,4]diazepin-2-ylamino)-3-methoxy-benzoic acid]
9 | < 1000 | COc1cc(C(=O)NC2CCN(C)CC2)ccc1Nc1ncc2c(n1)N(CC1CC1)CC(C)(C)C(=O)N2C [compound 276, 4-(9-Cyclopropylmethyl-5,7,7-trimethyl-6-oxo-6,7,8,9-tetrahydro-5H-pyrimido[4,5-b][1,4]diazepin-2-ylamino)-3-methoxy-N-(1-methyl-piperidin-4-yl)-benzamide]
10 | < 10000 | COc1cc(C(=O)NC2CCN(C)CC2)ccc1Nc1ncc2c(n1)N(c1ccccc1OC)CCC(=O)N2C [compound 277, 3-Methoxy-4-[9-(2-methoxy-phenyl)-5-methyl-6-oxo-6,7,8,9-tetrahydro-5H-pyrimido[4,5-b][1,4]diazepin-2-ylamino]-N-(1-methyl-piperidin-4-yl)-benzamide]
11 | < 10000 | COc1cc(C(=O)NC2CC(C)(C)N(C)C(C)(C)C2)ccc1Nc1ncc2c(n1)N(c1ccccc1OC)CCC(=O)N2C [compound 278, 3-Methoxy-4-[9-(2-methoxy-phenyl)-5-methyl-6-oxo-6,7,8,9-tetrahydro-5H-pyrimido[4,5-b][1,4]diazepin-2-ylamino]-N-(1,2,2,6,6-pentamethyl-piperidin-4-yl)-benzamide]
